Here are results for five molecules from ChEMBL document CHEMBL4602643, “Anti-inflammatory activities of isopimara-8(14),-15-diene diterpenoids and mode of action of kaempulchraols P and Q from Kaempferia pulchra rhizomes” (Bioorg Med Chem Lett, 2020).

Data set [1] has as its system RAW264.7. As to the kind of experiment: Anti-inflammatory activity in mouse RAW264.7 cells assessed as inhibition of LPS-induced NO production at 100 uM relative to control. Type of data set: functional.
A short description of data set [2]: Cytotoxicity against mouse RAW264.7 cells assessed as cell survival at 50 uM. Type of data set: cell-based. The note with it: read-out: Activity.
Data set [3] can be described thus: Cytotoxicity against mouse RAW264.7 cells assessed as cell survival at 100 uM. The note with it: read-out: Activity. Type of data set: cell-based.
For data set [4], the system named is RAW264.7. As to the kind of experiment: Anti-inflammatory activity in mouse RAW264.7 cells assessed as inhibition of LPS-induced NO production at 5 uM relative to control. Type of data set: functional.
Data set [5] is described as follows: Cytotoxicity against mouse RAW264.7 cells assessed as cell survival at 10 uM. Type of data set: cell-based. As to conditions: read-out: Activity.
Data set [6] relates to RAW264.7. Put plainly: Anti-inflammatory activity in mouse RAW264.7 cells assessed as inhibition of LPS-induced NO production at 50 uM relative to control. Type of data set: functional.
Data set [7] concerns RAW264.7. Put plainly: Anti-inflammatory activity in mouse RAW264.7 cells assessed as inhibition of LPS-induced NO production at 10 uM relative to control. Type of data set: functional.
Data set [8] has as its system RAW264.7. As to the kind of experiment: Anti-inflammatory activity in mouse RAW264.7 cells assessed as inhibition of LPS-induced NO production. Type of data set: functional, cell-based.
The subject of data set [9] is RAW264.7. Put plainly: Cytotoxicity against mouse RAW264.7 cells assessed as reduction in cell viability. Type of data set: cell-based.
A short description of data set [10]: Cytotoxicity against mouse RAW264.7 cells assessed as cell survival at 5 uM. Type of data set: cell-based. As to conditions: read-out: Activity.
The test system of data set [11] is RAW264.7. Put plainly: Antiinflammatory activity in mouse RAW264.7 cells assessed as inhibition of LPS-induced COX2 expression at 25 uM incubated for 24 hrs by Western blot analysis. Type of data set: functional, cell-based.
Data set [12] relates to RAW264.7. As to the kind of experiment: Inhibition of LPS-induced NF-kappaB activation in mouse RAW264.7 cells expressing luciferase gene at 5 to 25 uM by luciferase reporter gene assay. Type of data set: cell-based.
Data set [13] has as its system RAW264.7. Put plainly: Cytotoxicity against mouse RAW264.7 cells expressing luciferase reporter gene assessed as cell survival at 5 to 25 uM. Type of data set: cell-based. As to conditions: raw264.7, 25 µM.
Data set [14] has as its system RAW264.7. As to the kind of experiment: Inhibition of NF-kappaB activation in mouse RAW264.7 cells expressing luciferase gene at 5 to 25 uM by luciferase reporter gene assay. Type of data set: cell-based.
The test system of data set [15] is RAW264.7. As to the kind of experiment: Inhibition of LPS-induced IL-6 production in mouse RAW264.7 cells at 25 uM by ELISA. Type of data set: functional, cell-based.

Structures are written as SMILES. pIC50: −log10 of the molar value. Calls of active or inactive are those of the source. The rule behind the calls is not given here.

Turning to `C=C[C@]1(C)C=C2[C@@H](O)[C@@H](O)[C@H]3C(C)(C)CCC[C@]3(C)[C@@]2(O)CC1`, the inhibition at 100 µM in the data set with RAW264.7 [1] stood at 60.4%. The viability at 50 µM in data set [2] worked out at 60.2%. In addition, the viability at 100 µM in data set [3] was found to be 22.1%. The inhibition at 5 µM in the data set with RAW264.7 [4] is 5.03%. The viability at 10 µM in data set [5] stood at 81.2%. Besides, the inhibition at 50 µM with RAW264.7 [6] worked out at 51.4%. Moreover, the inhibition at 10 µM in the data set with RAW264.7 [7] is 16.9%. Further, the figures for the pIC50 with RAW264.7 [8] and with RAW264.7 [9] were 4.32 and < 4.30, respectively. For the same molecule, the viability at 5 µM in data set [10] worked out at 140%.
On to `C=C[C@]1(C)C=C2[C@H](OC(C)=O)[C@@H](O)[C@H]3C(C)(C)CCC[C@]3(C)[C@H]2CC1`, for which, in the data set with RAW264.7 [1], the inhibition at 100 µM is 82.1%. Moreover, the viability at 50 µM in data set [2] was 6.17%. Also, in data set [3], the viability at 100 µM is 3.73%. The inhibition at 5 µM with RAW264.7 [4] was -0.32%. Also, the viability at 10 µM in data set [5] amounted to 107%. Also, the inhibition at 50 µM in the data set on RAW264.7 [6] is 80.3%. Moreover, the inhibition at 10 µM with RAW264.7 [7] was 9.88%. In addition, the values for the pIC50 with RAW264.7 [8] and with RAW264.7 [9] were 4.48 and 4.49, respectively. In data set [10], the viability at 5 µM turned out to be 100%.
`C=C[C@]1(C)C=C2[C@@H](OC(C)=O)[C@@H](O)[C@H]3C(C)(C)CCC[C@]3(C)[C@@]2(O)CC1`: in the data set on RAW264.7 [1], the inhibition at 100 µM was determined as 47.5%. Further, in [2], the viability at 50 µM worked out at 85.7%. Moreover, the viability at 100 µM in data set [3] is 70.3%. In addition, in the data set with RAW264.7 [4], the inhibition at 5 µM was determined as 21.4%. Besides, the viability at 10 µM in data set [5] is 84.7%. Further, in the data set on RAW264.7 [6], the inhibition at 50 µM turned out to be 24.9%. Besides, in the data set on RAW264.7 [7], the inhibition at 10 µM turned out to be 16.7%. In addition, the pIC50 was < 4.00 in the data set on RAW264.7 [8] and < 4.30 in the data set on RAW264.7 [9]. In addition, the viability at 5 µM in data set [10] came to 89.3%.
For the molecule `C=C[C@]1(C)C=C2C[C@@H](O)[C@H]3C(C)(C)CC[C@H](OC(C)=O)[C@]3(C)[C@H]2CC1`, the inhibition at 100 µM with RAW264.7 [1] came out at 81.8%. Also, the viability at 50 µM in data set [2] was determined as 60.3%. The viability at 100 µM in data set [3] was found to be 3.39%. Moreover, the inhibition at 5 µM in the data set on RAW264.7 [4] was determined as 15.2%. For the same molecule, the inhibition result in the data set on RAW264.7 [11], in the data set on RAW264.7 [12], in the data set on RAW264.7 [14] and in the data set on RAW264.7 [15] was “Active” each time. Further, in [5], the viability at 10 µM was 111%. Moreover, the Activity result in the data set on RAW264.7 [13] is “Non-Toxic”. For the same molecule, the inhibition at 50 µM in the data set with RAW264.7 [6] was 71.6%. In the data set on RAW264.7 [7], the inhibition at 10 µM was 9.55%. Also, the pIC50 in the data set on RAW264.7 [8] is 4.44. Moreover, the viability at 5 µM in data set [10] is 106%.
For the molecule `C=C[C@]1(C)C=C2C[C@@H](O)[C@H]3C(C)(C)CCC[C@]3(C)[C@H]2CC1`, the inhibition at 100 µM in the data set on RAW264.7 [1] worked out at 81.7%. Besides, the viability at 50 µM in data set [2] stood at 109%. Further, the viability at 100 µM in [3] came to 66.8%. In addition, the inhibition at 5 µM in the data set on RAW264.7 [4] was 9.97%. The inhibition result with RAW264.7 [11], in the data set on RAW264.7 [12], in the data set with RAW264.7 [14] and with RAW264.7 [15] was “Active” each time. Besides, the viability at 10 µM in [5] was found to be 149%. Further, the Activity entry with RAW264.7 [13] was “Non-Toxic”. Further, in the data set on RAW264.7 [6], the inhibition at 50 µM came to 65.6%. Further, the inhibition at 10 µM in the data set on RAW264.7 [7] worked out at 3.82%. In the data set on RAW264.7 [8], the pIC50 is 4.40. The viability at 5 µM in data set [10] is 98.7%.
